Laboratory results published in ChEMBL document CHEMBL1201862, “PubChem BioAssay data set” (2004).
Active and inactive are the calls of the source.

Key:
[1] = biological target: Fructose-bisphosphate aldolase (Mycobacterium tuberculosis, UniProt P9WQA3); assay: Fluorescence-based biochemical high throughput dose response assay for inhibitors of the fructose-bisphosphate aldolase (FBA) of M. tuberculosis.; format: functional
[2] = biological target: ADP-ribosylation factor GTPase-activating protein 1 (Rattus norvegicus, UniProt Q62848); assay: Fluorescence polarization-based biochemical high throughput dose response screening assay to identify inhibitors of ADP-ribosylation factor GTPase activating protein 1 (ARFGAP1).; format: functional
[3] = biological target: Arf-GAP with SH3 domain, ANK repeat and PH domain-containing protein 1 (Homo sapiens, UniProt Q9ULH1); format: functional;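 also: biochemical fluorescence polarization dose–response screen measuring inhibition of ASAP1; ASAP1 GAP domain stimulating GTP hydrolysis by truncated human ARF1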
Melanocortin receptor 4 = Melanocortin receptor 4 (Homo sapiens, UniProt P32245); format: functional, cell-based;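 also: Cell-based assay with luminescence read-out, confirmatory dose-response testing for agonist activity of biased ligands at MC4R; human U2OS cells with tagged receptor and beta-arrestin; potency of agonists that increase receptor coupling to beta-arrestin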
[4] = viability loss in HEK293T cells – cell-based, cherry-picks, cytotoxicity control for HIV Vif inhibitor project, dose response (AID 652208); format: functional
Beta-galactosidase = Beta-galactosidase (Escherichia coli, UniProt Q8VNN2); assay: Dose response counterscreen for EBI2 assay utilizing the enzyme, b-galactosidase.; format: functional
[5] = biological target: T1, Tyrosine-protein phosphatase non-receptor type 7 (Homo sapiens, UniProt P35236); assay: HePTP tyrosine phosphatase activity blockers – biochemical, absorbance, leukemia target, primary screen (AID 521); format: functional
T1 sequence (P35236 whole entry): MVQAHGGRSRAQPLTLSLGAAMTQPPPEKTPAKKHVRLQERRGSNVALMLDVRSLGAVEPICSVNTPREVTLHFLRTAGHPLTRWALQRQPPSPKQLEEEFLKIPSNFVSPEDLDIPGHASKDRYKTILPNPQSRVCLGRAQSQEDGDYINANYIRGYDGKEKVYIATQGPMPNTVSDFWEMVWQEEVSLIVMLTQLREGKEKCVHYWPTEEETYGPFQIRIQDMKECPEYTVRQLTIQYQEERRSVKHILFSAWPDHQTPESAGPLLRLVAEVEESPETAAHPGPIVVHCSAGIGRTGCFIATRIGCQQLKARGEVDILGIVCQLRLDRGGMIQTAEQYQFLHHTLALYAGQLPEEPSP

Bcl-2-like protein 10 = Bcl-2-like protein 10 (Homo sapiens, UniProt Q9HD36); assay: Bcl-B/TR3 peptide binding disruption – biochemical, fluorescence polarization, FITC-TR3 peptide, selectivity assay for Bfl-1 inhibitor project, primary screen (AID 748);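 also: fluorescence polarization from a fluorescein-labelled TR3 peptide binding purified Bcl-B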
Estrogen receptor = biological target: T2, Estrogen receptor (Homo sapiens, UniProt P03372);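 also: potency for inhibiting coactivator peptide recruitment to the receptor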
T2 sequence (P03372 whole entry): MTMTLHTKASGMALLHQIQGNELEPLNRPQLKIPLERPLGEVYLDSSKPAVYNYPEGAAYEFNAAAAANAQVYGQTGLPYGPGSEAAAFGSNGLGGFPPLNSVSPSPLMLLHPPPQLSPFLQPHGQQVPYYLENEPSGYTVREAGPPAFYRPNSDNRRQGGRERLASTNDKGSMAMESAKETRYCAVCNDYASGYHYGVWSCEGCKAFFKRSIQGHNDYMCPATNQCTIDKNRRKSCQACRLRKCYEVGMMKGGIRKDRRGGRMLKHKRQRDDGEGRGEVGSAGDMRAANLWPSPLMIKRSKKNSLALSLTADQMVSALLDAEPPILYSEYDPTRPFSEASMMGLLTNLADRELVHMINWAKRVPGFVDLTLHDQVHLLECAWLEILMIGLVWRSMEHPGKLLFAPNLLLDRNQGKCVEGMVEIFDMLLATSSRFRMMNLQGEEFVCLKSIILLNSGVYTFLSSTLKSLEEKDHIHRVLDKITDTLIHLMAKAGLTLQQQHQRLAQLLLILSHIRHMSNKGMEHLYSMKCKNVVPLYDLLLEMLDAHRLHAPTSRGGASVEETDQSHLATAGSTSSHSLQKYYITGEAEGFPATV

Estrogen receptor beta [6] = biological target: T3, Estrogen receptor beta (Homo sapiens, UniProt Q92731);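 also: recombinant ER-beta bound to coactivator SRC1 peptide in presence of estradiol agonist; inhibitors block coactivator peptide binding and lower the FRET signal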
Estrogen receptor beta [7] = biological target: T3, Estrogen receptor beta; assay: blockers of SRC-3 recruitment to ERβ – biochemical, ELISA, streptavidin-HRP readout, orthogonal assay, confirmation (AID 1060)
[8] = biological target: DNA (cytosine-5)-methyltransferase 1 (Homo sapiens, UniProt P26358); assay: inhibition of DNA methylation by DNMT1 – biochemical, fluorescent molecular beacon, confirmation (AID 602386); format: functional
[9] = biological target: T4, Tyrosine-protein phosphatase non-receptor type 11 (Homo sapiens, UniProt Q06124); assay: PTPN11 enzyme inhibitors – biochemical, selectivity assay for STEP inhibitor project, dose response (AID 602367); format: functional; conditions: read-out: IC50_Mean
T4 sequence (Q06124 whole entry): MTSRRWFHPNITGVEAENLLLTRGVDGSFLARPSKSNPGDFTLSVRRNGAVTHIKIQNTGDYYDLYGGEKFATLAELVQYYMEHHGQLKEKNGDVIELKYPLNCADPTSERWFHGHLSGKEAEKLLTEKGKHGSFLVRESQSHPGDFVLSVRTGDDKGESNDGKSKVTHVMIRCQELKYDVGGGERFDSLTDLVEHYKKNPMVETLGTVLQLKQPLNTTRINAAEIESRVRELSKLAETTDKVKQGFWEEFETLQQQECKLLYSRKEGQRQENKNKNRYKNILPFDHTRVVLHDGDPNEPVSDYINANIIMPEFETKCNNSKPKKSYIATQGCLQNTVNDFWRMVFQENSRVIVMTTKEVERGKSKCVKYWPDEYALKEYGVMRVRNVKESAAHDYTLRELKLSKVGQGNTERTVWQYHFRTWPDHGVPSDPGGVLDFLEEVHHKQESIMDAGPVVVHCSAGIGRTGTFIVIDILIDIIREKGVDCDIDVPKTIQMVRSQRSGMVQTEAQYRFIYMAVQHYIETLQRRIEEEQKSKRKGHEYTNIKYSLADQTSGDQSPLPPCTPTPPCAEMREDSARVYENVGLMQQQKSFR

[10] = biological target: T5, Tyrosine-protein phosphatase non-receptor type 5 (Homo sapiens, UniProt P54829); assay: PTPN5 enzyme inhibition – biochemical, fluorescence intensity, uHTS hits, confirmation (AID 602372); format: functional; conditions: read-out: IC50_Mean
T5 sequence (P54829 whole entry): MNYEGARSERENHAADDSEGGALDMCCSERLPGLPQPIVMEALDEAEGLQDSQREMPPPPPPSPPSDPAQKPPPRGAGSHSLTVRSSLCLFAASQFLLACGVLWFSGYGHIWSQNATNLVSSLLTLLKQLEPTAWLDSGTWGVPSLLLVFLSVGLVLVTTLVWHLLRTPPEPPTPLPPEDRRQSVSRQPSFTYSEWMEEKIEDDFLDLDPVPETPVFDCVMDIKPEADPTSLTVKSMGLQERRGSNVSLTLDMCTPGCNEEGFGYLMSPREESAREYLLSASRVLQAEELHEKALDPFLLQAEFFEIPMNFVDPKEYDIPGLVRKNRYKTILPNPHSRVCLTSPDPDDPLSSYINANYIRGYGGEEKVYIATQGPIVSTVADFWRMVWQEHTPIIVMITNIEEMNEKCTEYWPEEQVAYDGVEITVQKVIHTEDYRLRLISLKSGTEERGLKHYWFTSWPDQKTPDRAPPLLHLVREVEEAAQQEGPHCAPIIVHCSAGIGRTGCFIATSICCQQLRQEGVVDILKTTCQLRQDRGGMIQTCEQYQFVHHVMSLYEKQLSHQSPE

[11] = biological target: Dual specificity protein phosphatase 3 (Homo sapiens, UniProt P51452); assay: VHR phosphatase inhibition, dose response, selectivity assay for STEP inhibitor project, biochemical (AID 602374); format: functional; conditions: read-out: IC50_Mean
[12] = biological target: T6, Tyrosine-protein phosphatase non-receptor type 22 (Homo sapiens, UniProt Q9Y2R2); assay: lymphoid phosphatase LYP inhibitors – biochemical, selectivity assay for STEP inhibitor project, dose response (AID 624241); format: functional
T6 sequence (Q9Y2R2 whole entry): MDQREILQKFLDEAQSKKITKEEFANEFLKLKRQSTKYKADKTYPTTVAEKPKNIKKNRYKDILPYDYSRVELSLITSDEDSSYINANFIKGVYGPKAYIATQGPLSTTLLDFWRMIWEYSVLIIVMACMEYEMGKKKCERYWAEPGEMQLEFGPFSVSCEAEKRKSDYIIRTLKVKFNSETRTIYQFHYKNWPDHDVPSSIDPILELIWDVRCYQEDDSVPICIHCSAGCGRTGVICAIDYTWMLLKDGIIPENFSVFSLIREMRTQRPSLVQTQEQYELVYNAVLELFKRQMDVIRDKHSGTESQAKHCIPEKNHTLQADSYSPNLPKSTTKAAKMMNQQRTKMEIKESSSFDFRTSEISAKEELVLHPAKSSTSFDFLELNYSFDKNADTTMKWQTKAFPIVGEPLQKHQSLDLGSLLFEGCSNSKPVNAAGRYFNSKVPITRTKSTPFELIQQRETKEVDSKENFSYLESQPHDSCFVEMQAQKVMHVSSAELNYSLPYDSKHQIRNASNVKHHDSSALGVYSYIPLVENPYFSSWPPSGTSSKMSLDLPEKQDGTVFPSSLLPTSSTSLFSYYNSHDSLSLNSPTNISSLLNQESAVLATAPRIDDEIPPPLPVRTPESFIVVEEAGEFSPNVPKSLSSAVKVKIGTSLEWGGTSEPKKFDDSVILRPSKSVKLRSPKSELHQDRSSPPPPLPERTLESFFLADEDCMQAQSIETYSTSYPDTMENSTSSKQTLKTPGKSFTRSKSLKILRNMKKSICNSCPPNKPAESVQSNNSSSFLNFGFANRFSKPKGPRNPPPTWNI

[13] = HIV-1 Vif–A3G interaction blockers – biochemical, TR-FRET, GST-Vif 1-94, biotin-A3G peptide, dose response retest, primary screen (AID 1117319); format: functional;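 also: TR-FRET signal of purified GST-Vif binding a biotinylated A3G peptide; inhibitors lower the FRET signal by blocking Vif and A3G binding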
Beta-lactamase [14] = biological target: Beta-lactamase (Salmonella choleraesuis (strain SC-B67), UniProt Q5J463); assay: Epi-absorbance-based counterscreen for selective VIM-2 inhibitors: dose response biochemical high throughput screening assay to identify inhibitors of TEM-1 serine-beta-lactamase.
Beta-lactamase [15] = biological target: T7, Beta-lactamase (Pseudomonas aeruginosa, UniProt Q79MP6); assay: inhibition of IMP-1 beta-lactamase activity – biochemical, epi-absorbance, selectivity assay for VIM-2 inhibitor project, dose response (AID 1920)
Beta Lactamase [16] = biological target: T8, Beta Lactamase (Pseudomonas aeruginosa, UniProt Q932Y6); assay: concentration-dependent VIM-2 enzyme inhibition – biochemical, epi-absorbance readout, selective inhibitors, dose response (AID 1919)
Beta-lactamase [17] = biological target: T7, Beta-lactamase; assay: […] counterscreen for selective VIM-2 inhibitors: dose response biochemical high throughput screening assay to identify inhibitors of IMP-1 metallo-beta-lactamase.
Beta Lactamase [18] = biological target: T8, Beta Lactamase; assay: VIM-2 CCF2 hydrolysis inhibition, assay artifact filter – biochemical, FRET readout, CCF2 substrate, artefact control for selective VIM-2 inhibitor project, dose response (AID 1926)
[19] = biological target: Broad substrate specificity ATP-binding cassette transporter ABCG2 (Homo sapiens, UniProt Q9UNQ0); assay: blockers of JC-1 export by ABCG2 – Ig-MXP3 cells, flow cytometry, dose response (AID 1690); format: functional
Large T antigen = Large T antigen (Simian virus 40, UniProt P03070); format: functional, Betapolyomavirus macacae;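 also: Confirmatory-stage PubChem screen for compounds that inhibit SV40 T antigen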
[20] = biological target: Long-chain-fatty-acid--AMP ligase FadD28 (Mycobacterium tuberculosis, UniProt P9WQ59); assay: Fluorescence polarization aasay to screen for inhibitors that compete for the binding of FadD28 to a bisubstrate Measured in Biochemical System Using Plate Reader - 2147-01_Inhibitor_Dose_CherryPick_Activity.; format: functional, Mycobacterium tuberculosis H37Rv
Fatty acid synthase [21] = biological target: T9, Fatty acid synthase (Homo sapiens, UniProt P49327); assay: inhibition of human FAS-TE enzyme activity – biochemical, endpoint fluorescence intensity, uHTS hits, dose response (AID 624327); format: functional;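 also: fluorescence from hydrolysis of an O-methyl fluorescein acyl ester substrate by the enzyme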
Fatty acid synthase [22] = biological target: T9, Fatty acid synthase; assay: inhibition of human FAS-TE enzyme activity – biochemical, kinetic fluorescence intensity, dose response (AID 624326); format: functional;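 also: rate of fluorescence rise from hydrolysis of a fluorogenic O-methyl fluorescein ester substrate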
Albumin = Albumin (Bos taurus, UniProt P02769); assay: Counterscreen for inhibitors of T-cell receptor (TCR)-CD3 interaction: Fluorescence-based biochemical high throughput dose response assay to identify inhibitors of T-cell receptor (TCR)-CD3 interaction using a TAMRA-labeled BSA probe.; format: functional
Sequence of Albumin (P02769 whole entry): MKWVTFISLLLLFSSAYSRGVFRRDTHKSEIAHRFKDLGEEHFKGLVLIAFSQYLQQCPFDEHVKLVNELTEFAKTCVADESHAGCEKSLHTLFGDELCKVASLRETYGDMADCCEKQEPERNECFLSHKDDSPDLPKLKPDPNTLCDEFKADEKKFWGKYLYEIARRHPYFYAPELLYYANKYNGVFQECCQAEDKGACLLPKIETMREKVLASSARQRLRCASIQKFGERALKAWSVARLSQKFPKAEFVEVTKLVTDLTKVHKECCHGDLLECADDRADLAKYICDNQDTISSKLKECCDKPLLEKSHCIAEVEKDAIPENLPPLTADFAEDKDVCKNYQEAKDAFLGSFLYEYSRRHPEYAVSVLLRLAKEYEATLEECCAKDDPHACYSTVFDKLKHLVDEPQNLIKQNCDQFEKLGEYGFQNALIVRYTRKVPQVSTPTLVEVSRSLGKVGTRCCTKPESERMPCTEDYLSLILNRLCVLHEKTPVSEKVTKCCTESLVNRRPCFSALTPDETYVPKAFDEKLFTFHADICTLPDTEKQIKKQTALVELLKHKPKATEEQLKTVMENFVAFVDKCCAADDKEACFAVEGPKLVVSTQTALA

T3 sequence (Q92731 whole entry): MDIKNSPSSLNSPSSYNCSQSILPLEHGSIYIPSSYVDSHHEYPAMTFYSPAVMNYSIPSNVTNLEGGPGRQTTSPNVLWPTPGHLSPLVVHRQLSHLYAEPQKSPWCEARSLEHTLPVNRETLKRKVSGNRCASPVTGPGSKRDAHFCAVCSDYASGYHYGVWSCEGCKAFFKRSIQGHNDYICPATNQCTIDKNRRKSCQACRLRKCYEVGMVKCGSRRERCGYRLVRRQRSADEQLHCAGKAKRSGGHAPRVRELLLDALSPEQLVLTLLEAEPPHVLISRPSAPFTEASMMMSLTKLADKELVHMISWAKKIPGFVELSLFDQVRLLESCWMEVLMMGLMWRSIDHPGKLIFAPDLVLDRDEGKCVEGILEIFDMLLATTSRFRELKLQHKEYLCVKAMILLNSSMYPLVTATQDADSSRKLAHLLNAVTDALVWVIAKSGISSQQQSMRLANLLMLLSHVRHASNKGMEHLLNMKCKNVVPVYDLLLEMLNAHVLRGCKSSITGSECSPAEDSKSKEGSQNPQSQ
T8 sequence (Q932Y6 whole entry): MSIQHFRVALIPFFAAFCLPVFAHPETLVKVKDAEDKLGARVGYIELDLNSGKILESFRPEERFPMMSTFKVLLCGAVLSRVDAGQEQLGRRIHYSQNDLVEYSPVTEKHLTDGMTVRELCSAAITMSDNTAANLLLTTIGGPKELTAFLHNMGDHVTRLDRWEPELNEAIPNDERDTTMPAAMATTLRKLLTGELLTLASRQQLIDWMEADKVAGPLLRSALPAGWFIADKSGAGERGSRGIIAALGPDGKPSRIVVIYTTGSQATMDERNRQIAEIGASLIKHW
T9 sequence (P49327 whole entry): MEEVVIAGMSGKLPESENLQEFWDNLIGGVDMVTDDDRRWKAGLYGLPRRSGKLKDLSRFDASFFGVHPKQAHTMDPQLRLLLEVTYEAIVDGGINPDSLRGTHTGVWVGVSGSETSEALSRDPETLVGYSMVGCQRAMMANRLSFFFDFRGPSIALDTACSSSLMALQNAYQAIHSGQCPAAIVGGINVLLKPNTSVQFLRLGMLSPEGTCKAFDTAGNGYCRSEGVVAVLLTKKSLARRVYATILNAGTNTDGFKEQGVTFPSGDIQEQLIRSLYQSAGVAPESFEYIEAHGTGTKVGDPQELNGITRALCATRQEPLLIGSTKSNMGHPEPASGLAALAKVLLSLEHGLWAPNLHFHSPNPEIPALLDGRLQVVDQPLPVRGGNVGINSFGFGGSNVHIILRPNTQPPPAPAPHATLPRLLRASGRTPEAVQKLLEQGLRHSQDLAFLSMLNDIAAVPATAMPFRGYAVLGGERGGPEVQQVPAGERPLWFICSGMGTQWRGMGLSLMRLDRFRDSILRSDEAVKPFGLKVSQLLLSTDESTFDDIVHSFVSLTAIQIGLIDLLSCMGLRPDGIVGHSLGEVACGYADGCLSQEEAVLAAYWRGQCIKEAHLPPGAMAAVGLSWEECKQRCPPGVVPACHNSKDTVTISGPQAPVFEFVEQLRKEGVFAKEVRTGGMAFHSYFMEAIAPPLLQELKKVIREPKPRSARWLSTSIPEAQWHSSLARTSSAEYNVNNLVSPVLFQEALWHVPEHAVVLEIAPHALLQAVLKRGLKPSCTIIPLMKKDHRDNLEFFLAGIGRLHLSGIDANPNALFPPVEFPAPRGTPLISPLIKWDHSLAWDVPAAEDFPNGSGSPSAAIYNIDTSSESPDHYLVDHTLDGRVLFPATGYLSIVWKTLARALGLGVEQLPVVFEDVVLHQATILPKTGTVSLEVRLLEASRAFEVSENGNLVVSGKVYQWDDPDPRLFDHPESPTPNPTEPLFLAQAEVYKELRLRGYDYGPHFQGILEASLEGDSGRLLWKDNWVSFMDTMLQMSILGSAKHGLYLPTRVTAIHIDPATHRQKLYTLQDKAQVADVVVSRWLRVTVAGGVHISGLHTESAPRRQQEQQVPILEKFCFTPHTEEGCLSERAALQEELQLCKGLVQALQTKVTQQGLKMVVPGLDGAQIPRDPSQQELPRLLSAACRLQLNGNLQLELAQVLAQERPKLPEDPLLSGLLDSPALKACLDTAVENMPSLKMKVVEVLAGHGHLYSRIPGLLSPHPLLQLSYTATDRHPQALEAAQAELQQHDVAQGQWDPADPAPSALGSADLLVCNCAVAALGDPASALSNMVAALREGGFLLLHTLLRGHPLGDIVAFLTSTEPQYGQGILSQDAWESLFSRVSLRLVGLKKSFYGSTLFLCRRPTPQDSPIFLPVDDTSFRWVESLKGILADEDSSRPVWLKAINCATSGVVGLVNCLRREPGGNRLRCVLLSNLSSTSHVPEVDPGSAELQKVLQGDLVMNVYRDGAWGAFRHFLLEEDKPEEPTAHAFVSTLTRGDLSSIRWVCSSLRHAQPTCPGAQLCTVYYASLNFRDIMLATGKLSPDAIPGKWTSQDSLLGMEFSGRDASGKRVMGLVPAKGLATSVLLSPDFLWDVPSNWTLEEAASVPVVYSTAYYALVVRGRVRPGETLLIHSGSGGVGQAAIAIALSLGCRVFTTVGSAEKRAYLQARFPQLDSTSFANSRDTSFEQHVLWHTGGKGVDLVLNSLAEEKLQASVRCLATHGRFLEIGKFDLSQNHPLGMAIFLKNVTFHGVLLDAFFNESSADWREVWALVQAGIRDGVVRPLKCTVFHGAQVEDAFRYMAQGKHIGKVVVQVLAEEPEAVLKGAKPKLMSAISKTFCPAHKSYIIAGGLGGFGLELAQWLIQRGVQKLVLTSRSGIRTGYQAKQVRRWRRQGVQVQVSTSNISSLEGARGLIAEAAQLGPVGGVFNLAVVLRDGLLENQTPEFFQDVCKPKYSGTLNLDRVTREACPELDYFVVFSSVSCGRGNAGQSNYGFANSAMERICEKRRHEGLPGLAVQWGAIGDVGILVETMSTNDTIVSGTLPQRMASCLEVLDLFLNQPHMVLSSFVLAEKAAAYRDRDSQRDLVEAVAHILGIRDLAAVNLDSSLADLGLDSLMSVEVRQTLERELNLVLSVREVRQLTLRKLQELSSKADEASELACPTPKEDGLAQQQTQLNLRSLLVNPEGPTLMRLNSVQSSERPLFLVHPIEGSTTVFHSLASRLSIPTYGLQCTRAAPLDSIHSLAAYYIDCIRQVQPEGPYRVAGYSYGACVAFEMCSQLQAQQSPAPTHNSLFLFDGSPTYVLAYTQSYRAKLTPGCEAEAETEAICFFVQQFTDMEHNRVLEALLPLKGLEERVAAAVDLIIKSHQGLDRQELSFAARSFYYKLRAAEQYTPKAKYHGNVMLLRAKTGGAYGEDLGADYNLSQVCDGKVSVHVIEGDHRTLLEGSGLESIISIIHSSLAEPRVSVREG
T7 sequence (Q79MP6 whole entry): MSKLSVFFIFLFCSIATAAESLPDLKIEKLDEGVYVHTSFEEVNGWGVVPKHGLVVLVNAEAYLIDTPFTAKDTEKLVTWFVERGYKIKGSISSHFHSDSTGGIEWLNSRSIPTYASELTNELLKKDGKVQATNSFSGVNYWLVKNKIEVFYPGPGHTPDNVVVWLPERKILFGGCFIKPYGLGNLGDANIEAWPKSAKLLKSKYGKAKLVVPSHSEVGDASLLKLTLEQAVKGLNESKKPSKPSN
Sequence of Melanocortin receptor 4 (P32245 whole entry): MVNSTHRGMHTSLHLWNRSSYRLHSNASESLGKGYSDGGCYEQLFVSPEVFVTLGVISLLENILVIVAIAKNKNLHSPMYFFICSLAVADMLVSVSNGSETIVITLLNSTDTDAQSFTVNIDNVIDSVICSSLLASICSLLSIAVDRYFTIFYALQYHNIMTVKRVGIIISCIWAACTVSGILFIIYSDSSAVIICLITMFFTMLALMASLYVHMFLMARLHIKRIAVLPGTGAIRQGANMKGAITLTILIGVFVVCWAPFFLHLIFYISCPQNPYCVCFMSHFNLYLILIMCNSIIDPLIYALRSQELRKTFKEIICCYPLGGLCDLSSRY
Sequence of Beta-lactamase (Salmonella choleraesuis (strain SC-B67), UniProt Q5J463) (Q5J463 whole entry): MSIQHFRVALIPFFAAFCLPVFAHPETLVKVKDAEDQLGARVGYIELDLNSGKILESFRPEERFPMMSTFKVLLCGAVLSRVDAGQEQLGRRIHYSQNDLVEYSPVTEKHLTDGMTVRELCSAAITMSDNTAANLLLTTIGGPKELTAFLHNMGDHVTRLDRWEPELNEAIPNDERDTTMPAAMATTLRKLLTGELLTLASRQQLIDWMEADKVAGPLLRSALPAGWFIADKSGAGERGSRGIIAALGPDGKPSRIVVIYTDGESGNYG
Sequence of Bcl-2-like protein 10 (Q9HD36 whole entry): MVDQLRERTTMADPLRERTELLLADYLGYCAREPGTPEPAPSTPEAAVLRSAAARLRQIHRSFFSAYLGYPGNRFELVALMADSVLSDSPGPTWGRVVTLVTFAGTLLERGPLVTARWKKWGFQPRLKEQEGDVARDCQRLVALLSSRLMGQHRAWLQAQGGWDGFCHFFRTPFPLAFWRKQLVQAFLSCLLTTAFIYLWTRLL

## COc1ccc2nc(C)cc(C(=O)O)c2c1
[1]
  IC50: 1.16 µM (active)

## Cc1ccc2nc(SCC(=O)N3CC(C)OC(C)C3)nc(=O)n2c1 (stereo not drawn)
[2]
  IC50: 10.7 µM (inactive)
[3]
  IC50: 20.9 µM (inactive)

## NC(CCc1ccccc1)c1csc(Nc2ccc(C(=O)c3ccccc3)cc2)n1 (stereo not drawn)
Melanocortin receptor 4
  EC50: > 89.2 µM (inactive)
[4]
  AC50: 27.7 µM (active)

## COc1cccc(C(=O)N2CCN(C(=O)COc3ccc4ccccc4c3)CC2)c1
Beta-galactosidase
  IC50: > 80 µM (inactive)

## COc1ccc(OC)c(N2C(=O)[C@@H]3C(c4ccccc4Cl)=NO[C@@H]3C2=O)c1
[5]
  IC50: 8.25 µM (active)
Bcl-2-like protein 10
  IC50: 14.9 µM (active)
Estrogen receptor
  IC50: 9.78 µM (active)
Estrogen receptor beta [6]
  IC50: 2.49 µM (active)
Estrogen receptor beta [7]
  IC50: > 50 µM (not active)
[8]
  IC50: 4.35 µM (active)
[9]
  IC50: 0.469 µM (active)
[10]
  IC50: 24.4 µM (inactive)
[11]
  IC50: 0.833 µM (active)
[12]
  IC50: > 100 µM (inactive)
[13]
  IC50: > 100 µM (active)

## CN(C)S(=O)(=O)c1cccc(NC(=S)N/N=C/C2CC=CCC2)c1 (stereo not drawn)
Beta-lactamase [14]
  IC50: > 59.6 µM (inactive)
Beta-lactamase [15]
  IC50: > 59.6 µM (inactive)
Beta Lactamase [16]
  IC50: 1 µM (active)
Beta-lactamase [17]
  IC50: > 59.6 µM (inactive)
Beta Lactamase [18]
  IC50: 0.335 µM (active)

## COc1cc(C(=O)Nc2ccc(S(=O)(=O)NC(C)C)cc2)cc(OC)c1OC
[19]
  EC50: 1.32 µM (inactive)

## Cc1[nH]c2ccccc2c1-c1csc(NC(=O)CSCC(=O)O)n1
Large T antigen
  IC50: 26.2 µM (active)
[20]
  AC50: > 100 µM (inactive)

## COc1cc([N+](=O)[O-])cc(/C=N/NC(=O)c2cc(C)nc3ccccc23)c1O
Fatty acid synthase [21]
  IC50: 15.5 µM (active)
Fatty acid synthase [22]
  IC50: 11.7 µM (active)
Albumin
  IC50: > 94.1 µM (inactive)
